From patent US7119073B2, “Peptides and their use as inhibitors of hepatitis C virus ns3 protease” (Istituto Di Ricerche Di Biologia Molecolare P. Angeletti SpA, priority 2001, dated 2006)

biological target: T1, NS3 protease domain complexed to a modified form of the NS4A peptide (Pep4AK) (Hepatitis C virus genotype 1b, UniProt P26663); assay: HCV NS3 protease domain/NS4A cofactor peptide assay (Assay B); assay type: biochemical; conditions: NS3 protease domain/NS4A cofactor peptide assay; read-out: Assay B (IC50 class)
T1 construct: NS3 protease domain (residues 1027–1206 of the HCV polyprotein)
T1 sequence (P26663 1027-1206, other chains not shown): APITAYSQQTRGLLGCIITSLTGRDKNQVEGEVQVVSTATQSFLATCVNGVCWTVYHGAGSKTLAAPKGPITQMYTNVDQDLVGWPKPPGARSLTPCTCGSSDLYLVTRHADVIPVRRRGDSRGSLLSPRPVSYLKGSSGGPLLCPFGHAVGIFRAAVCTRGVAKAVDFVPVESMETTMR

SMILES | IC50
CC(C)C[C@H](NC(=O)C1Cc2ccccc2N1)C(=O)N[C@@H](CC(F)F)C(=O)NCCc1c(F)cc(C(=O)O)cc1F (stereo partly drawn) [Compound 709] | < 100 µM
CC(C)CC(NC(=O)c1ccccc1-c1ccccc1C(=O)O)C(=O)NC(CC(F)F)C(=O)NCCc1ccc(C(=O)O)cc1Cl (stereo not drawn) [Compound 715] | < 100 µM
CC(C)CC(NC(=O)c1ccccc1-c1ccccc1C(=O)O)C(=O)NC(CS)C(=O)NCCc1ccccc1Cl (stereo not drawn) [Compound 716] | < 100 µM
CC(C)CC(NC(=O)c1ccccc1-c1ccccc1C(=O)O)C(=O)NC(CS)C(=O)NCCc1ccc(Cl)cc1Cl (stereo not drawn) [Compound 717] | < 100 µM
CC(C)CC(NC(=O)c1ccccc1-c1ccccc1C(=O)O)C(=O)NC(CC(F)F)C(=O)NCCc1c(F)cc(C(=O)O)cc1F (stereo not drawn) [Compound 718] | < 100 µM
CCOC(=O)C=Cc1cccc(CCNC(=O)C(CC(F)F)NC(=O)C(CC(C)C)NC(=O)c2ccccc2-c2ccccc2C(=O)O)c1 (stereo not drawn) [Compound 719] | < 100 µM

same assay, conditions: Table 2; NS3 protease domain/Pep4AK; read-out: Assay B

SMILES | IC50
CC(C)C[C@H](NC(=O)[C@H](CCC(=O)O)NC(=O)[C@@H](O)c1ccccc1)C(=O)N[C@@H](CS)C(=O)NCCc1ccccc1Cl [Compound 221] | < 10 µM
CC(C)C[C@H](NC(=O)[C@H](CCC(=O)O)NC(=O)Cc1ccsc1)C(=O)N[C@@H](CS)C(=O)NCCc1ccccc1Cl [Compound 222] | < 100 µM
COc1ccc(CCNC(=O)[C@H](CS)NC(=O)[C@H](CC(C)C)NC(=O)[C@H](CCC(=O)O)NC(=O)Cc2cccs2)cc1 [Compound 223] | < 100 µM
CC(C)C[C@H](NC(=O)[C@H](CCC(=O)O)NC(=O)C(=O)c1cccs1)C(=O)N[C@@H](CS)C(=O)NCCc1ccccc1Cl [Compound 224] | < 100 µM
CC(C)C[C@H](NC(=O)[C@H](CCC(=O)O)NC(=O)Cc1ccccc1CC(=O)O)C(=O)N[C@@H](CS)C(=O)NCCc1ccc(Cl)cc1Cl [Compound 225] | < 10 µM
CC(C)C[C@H](NC(=O)[C@H](CCC(=O)O)NC(=O)Cc1cccc(CC(=O)O)c1)C(=O)N[C@@H](CS)C(=O)NCCc1ccc(Cl)cc1Cl [Compound 226] | < 100 µM
CC(C)C[C@H](NC(=O)[C@H](CCC(=O)O)NC(=O)Cc1ccc(CC(=O)O)cc1)C(=O)N[C@@H](CS)C(=O)NCCc1ccc(Cl)cc1Cl [Compound 227] | < 100 µM
C=CCCC(=O)N[C@@H](CCC(=O)O)C(=O)N[C@@H](CC(C)C)C(=O)N[C@@H](CS)C(=O)NCCc1ccccc1Cl [Compound 228] | < 100 µM
CC(C)CC(O)C(=O)N[C@@H](CCC(=O)O)C(=O)N[C@@H](CC(C)C)C(=O)N[C@@H](CS)C(=O)NCCc1ccccc1Cl (stereo partly drawn) [Compound 229] | < 100 µM
CC(C)C[C@H](NC(=O)[C@H](CCC(=O)O)NC(=O)C1CCCCC1)C(=O)N[C@@H](CS)C(=O)NCCc1ccccc1Cl [Compound 230] | < 100 µM
COc1ccc(CCNC(=O)[C@H](CS)NC(=O)[C@H](CC(C)C)NC(=O)[C@H](CCC(=O)O)NC(=O)C2CCCCC2)cc1 [Compound 231] | < 100 µM
COc1ccc(CCNC(=O)[C@H](CS)NC(=O)[C@H](CC(C)C)NC(=O)[C@H](CCC(=O)O)NC(=O)C2CCCCCC2)cc1 [Compound 232] | < 100 µM
CC(C)C[C@H](NC(=O)[C@H](CCC(=O)O)NC(=O)CC1CCCCC1)C(=O)N[C@@H](CS)C(=O)NCCc1ccccc1Cl [Compound 234] | < 100 µM
CC(C)C[C@H](NC(=O)[C@H](CCC(=O)O)NC(=O)CCC1CCCC1)C(=O)N[C@@H](CS)C(=O)NCCc1ccccc1Cl [Compound 235] | < 100 µM
COc1ccc(CCNC(=O)[C@H](CS)NC(=O)[C@H](CC(C)C)NC(=O)[C@H](CCC(=O)O)NC(=O)CCC2CCCC2)cc1 [Compound 236] | < 100 µM
CC(C)C[C@H](NC(=O)[C@H](CCC(=O)O)NC(=O)N1CCOCC1)C(=O)N[C@@H](CS)C(=O)NCCc1ccccc1Cl [Compound 237] | < 100 µM
CC(C)C[C@H](NC(=O)[C@H](CCC(=O)O)NC(=O)CC1NC(=O)NC1=O)C(=O)N[C@@H](CS)C(=O)NCCc1ccc(Cl)cc1Cl (stereo partly drawn) [Compound 238] | < 100 µM

SMILES | IC50
CC(C)C[C@H](NC(=O)[C@H](CCC(=O)O)NC(=O)CCC(=O)O)C(=O)N[C@@H](CS)C(=O)NCCc1ccccc1Cl [Compound 239] | < 100 µM
CC(C)C[C@H](NC(=O)[C@H](CCC(=O)O)NC(=O)CC(C)(C)CC(=O)O)C(=O)N[C@@H](CS)C(=O)NCCc1ccccc1Cl [Compound 240] | < 100 µM
COc1ccc(CCNC(=O)[C@H](CS)NC(=O)[C@H](CC(C)C)NC(=O)[C@H](CCC(=O)O)NC(=O)CC(C)(C)CC(=O)O)cc1 [Compound 241] | < 100 µM
COc1ccc(CCNC(=O)[C@H](CS)NC(=O)[C@H](CC(C)C)NC(=O)[C@H](CCC(=O)O)NC(=O)C(C)(C)CCC(=O)O)cc1 [Compound 243] | < 100 µM
CC(C)C[C@H](NC(=O)[C@H](CCC(=O)O)NC(=O)CCCC(=O)O)C(=O)N[C@@H](CS)C(=O)NCCc1ccccc1Cl [Compound 244] | < 100 µM
CC(C)C[C@H](NC(=O)[C@H](CCC(=O)O)NC(=O)CC(C)CC(=O)O)C(=O)N[C@@H](CS)C(=O)NCCc1ccccc1Cl (stereo partly drawn) [Compound 245] | < 100 µM
C=CCNC(=O)N[C@@H](CCC(=O)O)C(=O)N[C@@H](CC(C)C)C(=O)N[C@@H](CS)C(=O)NCCc1ccccc1Cl [Compound 246] | < 100 µM
CC(C)C[C@H](NC(=O)[C@H](CCC(=O)O)NC(=O)Nc1ccccc1)C(=O)N[C@@H](CS)C(=O)NCCc1ccccc1Cl [Compound 247] | < 100 µM
CC(C)C[C@H](NC(=O)[C@H](CCC(=O)O)NC(=O)NCc1ccccc1)C(=O)N[C@@H](CS)C(=O)NCCc1ccc(Cl)cc1Cl [Compound 248] | < 100 µM
CC(C)C[C@H](NC(=O)[C@H](CCC(=O)O)NS(=O)(=O)c1ccccc1)C(=O)N[C@@H](CS)C(=O)NCCc1ccccc1Cl [Compound 249] | < 100 µM
COc1ccc(CCNC(=O)[C@H](CS)NC(=O)[C@H](CC(C)C)NC(=O)[C@H](CCC(=O)O)NS(=O)(=O)c2ccccc2)cc1 [Compound 250] | < 100 µM
Cc1ccc(S(=O)(=O)N[C@@H](CCC(=O)O)C(=O)N[C@@H](CC(C)C)C(=O)N[C@@H](CS)C(=O)NCCc2ccccc2Cl)cc1 [Compound 251] | < 100 µM
CC(C)C[C@H](NC(=O)[C@H](CCC(=O)O)NS(=O)(=O)c1cccs1)C(=O)N[C@@H](CS)C(=O)NCCc1ccccc1Cl [Compound 253] | < 100 µM
COc1ccc(CCNC(=O)[C@H](CS)NC(=O)[C@H](CC(C)C)NC(=O)[C@H](CCC(=O)O)NS(C)(=O)=O)cc1 [Compound 254] | < 100 µM
COc1ccc(CCNC(=O)[C@H](CS)NC(=O)[C@H](CC(C)C)NC(=O)[C@H](CCC(=O)O)NS(=O)(=O)c2ccc3ccccc3c2)cc1 [Compound 255] | < 100 µM
CC(C)C[C@H](NC(=O)[C@H](CCC(=O)O)NS(=O)(=O)Cc1ccccc1)C(=O)N[C@@H](CS)C(=O)NCCc1ccc(Cl)cc1Cl [Compound 256] | < 100 µM

same assay, conditions: Table 4; NS3 protease domain/Pep4AK; read-out: Assay B

SMILES | IC50
CC[C@H](NC(=O)[C@H](CCC(=O)O)NC(=O)OCC(C)C)C(=O)N[C@@H](CS)C(=O)NCCc1ccccc1Cl [Compound 401] | < 100 µM
CC(C)COC(=O)N[C@@H](CCC(=O)O)C(=O)N[C@@H](CC(F)F)C(=O)N[C@@H](CS)C(=O)NCCc1ccc(C(=O)O)cc1 [Compound 402] | < 100 µM
CCC[C@H](NC(=O)[C@H](CCC(=O)O)NC(=O)OCC(C)C)C(=O)N[C@@H](CS)C(=O)NCCc1ccccc1Cl [Compound 405] | < 100 µM
CCCC[C@H](NC(=O)[C@H](CCC(=O)O)NC(=O)OCC(C)C)C(=O)N[C@@H](CS)C(=O)NCCc1ccccc1Cl [Compound 407] | < 100 µM
CC(C)COC(=O)N[C@@H](CCC(=O)O)C(=O)N[C@@H](CC1CC1)C(=O)N[C@@H](CS)C(=O)NCCc1ccccc1Cl [Compound 408] | < 100 µM
CC(C)COC(=O)N[C@@H](CCC(=O)O)C(=O)N[C@@H](CC1CCCCC1)C(=O)N[C@@H](CS)C(=O)NCCc1ccc(C(=O)O)cc1 [Compound 409] | < 10 µM
CC(C)COC(=O)N[C@@H](CCC(=O)O)C(=O)N[C@H](C(=O)N[C@@H](CS)C(=O)NCCc1ccccc1Cl)C1CCCC1 [Compound 411] | < 100 µM
CC(C)COC(=O)N[C@@H](CCC(=O)O)C(=O)N[C@@H](CCC(=O)O)C(=O)N[C@@H](CS)C(=O)NCCc1ccccc1Cl [Compound 412] | < 100 µM
CC(C)COC(=O)N[C@@H](CCC(=O)O)C(=O)N[C@@H](CCC(=O)OCc1ccccc1)C(=O)N[C@@H](CS)C(=O)NCCc1ccccc1Cl [Compound 413] | < 100 µM
CC(C)COC(=O)N[C@@H](CCC(=O)O)C(=O)N[C@@H](CCc1ccccc1)C(=O)N[C@@H](CS)C(=O)NCCc1ccccc1Cl [Compound 414] | < 100 µM
CC(C)COC(=O)N[C@@H](CCC(=O)O)C(=O)NC1(C(=O)N[C@@H](CS)C(=O)NCCc2ccccc2Cl)Cc2ccccc2C1 [Compound 415] | < 100 µM
CC(C)COC(=O)N[C@@H](CCC(=O)O)C(=O)N(C)[C@@H](CC(C)C)C(=O)N[C@@H](CS)C(=O)NCCc1ccccc1Cl [Compound 416] | < 100 µM
CC(C)COC(=O)N[C@@H](CCC(=O)O)C(=O)N1Cc2ccccc2C[C@H]1C(=O)N[C@@H](CS)C(=O)NCCc1ccccc1Cl [Compound 417] | < 100 µM
CC(C)COC(=O)NC(CCC(=O)O)C(=O)N1CCC1C(=O)NC(CS)C(=O)NCCc1ccccc1Cl (stereo not drawn) [Compound 418] | < 100 µM
CC(C)COC(=O)N[C@@H](CCC(=O)O)C(=O)N1C=CC[C@H]1C(=O)N[C@@H](CS)C(=O)NCCc1ccccc1Cl [Compound 419] | < 100 µM
CC(C)COC(=O)N[C@@H](CCC(=O)O)C(=O)N1C2CCCCC2C[C@H]1C(=O)N[C@@H](CS)C(=O)NCCc1ccccc1Cl (stereo partly drawn) [Compound 420] | < 10 µM
CC(C)COC(=O)N[C@@H](CCC(=O)O)C(=O)N1c2ccccc2C[C@H]1C(=O)N[C@@H](CC(F)F)C(=O)NCCc1ccc(C(=O)O)cc1Cl [Compound 421] | < 100 µM
CC(C)COC(=O)NC(CCC(=O)O)C(=O)N1C(C(=O)NC(CS)C(=O)NCCc2ccccc2Cl)CCC1c1ccccc1 (stereo not drawn) [Compound 422] | < 100 µM
